Here are results for 13 compounds from PubChem BioAssay (NCI).

SMILES strings stand for the structures.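 How tested: cells in 96-well plates exposed to compound for 48 hours at five concentrations. GI50: concentration for 50% inhibition of growth. TGI marks complete inhibition of growth.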 Bounds are passed on as bounds.

Some test systems named below: LOX IMVI melanoma; SK-OV-3 ovarian; SK-MEL-5 melanoma; EKVX NSCLC; SK-MEL-28 melanoma; 786-0 renal; SK-MEL-2 melanoma; SF-295 CNS; RPMI-8226 leukemia; OVCAR-5 ovarian.
Holding throughout (experiment): NCI tumour cell line growth inhibition, 48 h

`Cc1cc(Cl)ccc1NC(=O)C(=O)Cc1nc2ccc(C(=O)c3ccccc3)cc2[nH]c1=O`: the TGI in the assay with LOX IMVI melanoma, in the assay on SK-OV-3 ovarian, in the assay on SK-MEL-5 melanoma, in the assay on EKVX NSCLC, in the assay on SK-MEL-28 melanoma and in the assay with 786-0 renal was more than 100 µM in each case. The TGI with SK-MEL-2 melanoma and in the assay on SF-295 CNS was more than 100 µM throughout.
`C/C(=N/N(C=O)C[n+]1ccccc1)C(CN(CC(C)C)CC(C)C)C(=O)Nc1ccc(C)cc1C` (stereo not drawn): the TGI in the assay with RPMI-8226 leukemia, with SK-OV-3 ovarian, in the assay with SK-MEL-5 melanoma, with EKVX NSCLC, in the assay on OVCAR-5 ovarian and in the assay on SK-MEL-28 melanoma was more than 100 µM each time. For the same compound, the TGI in the assay with 786-0 renal, in the assay with SK-MEL-2 melanoma and with SF-295 CNS was more than 100 µM in each case.
As for `COC(=O)C1=C(OC(=O)c2ccc(Cl)cc2)C(C(=O)OC)[C@@]2(O)[C@@H](C(=O)OC)C(c3ccccc3C(F)(F)F)C[C@@H]1[C@@H]2C(=O)OC` (stereo partly drawn), the GI50 with RPMI-8226 leukemia was 2.99 µM; in the assay with SK-OV-3 ovarian it was 5.99 µM; in the assay on SK-MEL-5 melanoma it was 3.46 µM; in the assay with EKVX NSCLC, 8.1 µM; in the assay with OVCAR-5 ovarian, 54.2 µM; in the assay with SK-MEL-28 melanoma, 6.69 µM. Also, the GI50 in the assay on 786-0 renal was 4.86 µM; in the assay on SK-MEL-2 melanoma, 15.5 µM. The TGI with RPMI-8226 leukemia was more than 100 µM; with SK-OV-3 ovarian, 60 µM; in the assay with SK-MEL-5 melanoma, 12.4 µM; in the assay on EKVX NSCLC, more than 100 µM; in the assay with OVCAR-5 ovarian it was more than 100 µM; in the assay on SK-MEL-28 melanoma, more than 100 µM. Further, the TGI is more than 100 µM in the assay with 786-0 renal and 33.9 µM in the assay with SK-MEL-2 melanoma.
As to `CC(C)c1ccc2nc3ccc(C(=O)NCCN(C)C)cn3c(=O)c2c1`, the TGI with SK-OV-3 ovarian stood at 33.5 µM; with SK-MEL-5 melanoma, 24.8 µM; in the assay on EKVX NSCLC it was 34.7 µM; with OVCAR-5 ovarian, 33.2 µM; in the assay with SK-MEL-28 melanoma it was 32.4 µM; in the assay on 786-0 renal, 27.8 µM. The same compound displayed a TGI in the assay with SF-295 CNS of 23.8 µM.
As for `COc1ccc(C(C2=C(C)C(=O)c3ccccc3C2=O)c2ccc(C(C)C)cc(=O)c2O)cc1` (stereo not drawn), the TGI in the assay with RPMI-8226 leukemia was more than 100 µM; with LOX IMVI melanoma it was 17.6 µM; in the assay on SK-OV-3 ovarian it was 14.6 µM; with SK-MEL-5 melanoma, 15.2 µM; with OVCAR-5 ovarian, 7.53 µM; in the assay on 786-0 renal, 6.26 µM. For the same compound, the TGI stood at 22.3 µM in the assay on SK-MEL-2 melanoma and 23 µM with SF-295 CNS.
Turning to `CC(C)N(C(=O)C12C3C4C1C1C2C3C41C(O)C(C)(C)C)C(C)C` (stereo not drawn), the TGI in the assay with SK-OV-3 ovarian, in the assay on SK-MEL-5 melanoma, with EKVX NSCLC, in the assay on SK-MEL-28 melanoma, with 786-0 renal and with SF-295 CNS was more than 50 µM each time.
`O=c1nc(-c2ccccc2)c2c3c(cccn13)CCC2`: the TGI with RPMI-8226 leukemia, with LOX IMVI melanoma, with SK-OV-3 ovarian, with SK-MEL-5 melanoma, in the assay on OVCAR-5 ovarian and in the assay with SK-MEL-28 melanoma was more than 100 µM throughout. Besides, the TGI in the assay with 786-0 renal, with SK-MEL-2 melanoma and with SF-295 CNS was more than 100 µM in each case.
`Cc1cc(C)c2c(c1)CN1CN2Cc2cc(C)cc(C)c21`: the TGI is 52.2 µM in the assay with RPMI-8226 leukemia; 30.7 µM with LOX IMVI melanoma; 86.5 µM with SK-OV-3 ovarian; 35.1 µM in the assay on EKVX NSCLC; more than 100 µM with OVCAR-5 ovarian; 44.4 µM in the assay with SK-MEL-28 melanoma. In addition, the TGI with 786-0 renal was determined as 34.7 µM; in the assay with SF-295 CNS, 37.4 µM.
For the compound `CCN(c1ccc(CO)c(Cl)c1)C(C)c1ccc(F)cc1` (stereo not drawn), the GI50 in the assay on RPMI-8226 leukemia is 11.8 µM; in the assay with LOX IMVI melanoma it was 17.1 µM; in the assay on SK-OV-3 ovarian, 15.7 µM; in the assay on SK-MEL-5 melanoma, 14.5 µM; with OVCAR-5 ovarian it was 2.97 µM; in the assay with SK-MEL-28 melanoma it was 16.1 µM. The GI50 was 16.4 µM in the assay with 786-0 renal, 13.2 µM in the assay with SK-MEL-2 melanoma and 11.5 µM with SF-295 CNS. For the same compound, the TGI was 39.2 µM in the assay with RPMI-8226 leukemia; 32.9 µM with LOX IMVI melanoma; 29.2 µM in the assay on SK-OV-3 ovarian; 28 µM with SK-MEL-5 melanoma; 11.9 µM in the assay on OVCAR-5 ovarian; 30.6 µM with SK-MEL-28 melanoma. Besides, the TGI in the assay on 786-0 renal turned out to be 30.4 µM; in the assay with SK-MEL-2 melanoma it was 28 µM; in the assay on SF-295 CNS, 24.3 µM.
For `COc1ccc2nc(-c3ccccc3)cc(Nc3cccc(/C(C)=N\O)c3)c2c1`, the GI50 with RPMI-8226 leukemia was 4.89 µM; in the assay on SK-OV-3 ovarian, 6.65 µM; with SK-MEL-5 melanoma, 13.2 µM; in the assay with EKVX NSCLC, 19.2 µM; in the assay with OVCAR-5 ovarian, 33.7 µM; with SK-MEL-28 melanoma, 57.7 µM. Besides, the values for the GI50 in the assay with 786-0 renal, with SK-MEL-2 melanoma and in the assay on SF-295 CNS were 2.09 µM, 55.7 µM and 2.05 µM, respectively. Also, the TGI was more than 100 µM in the assay with RPMI-8226 leukemia; 80.6 µM with SK-OV-3 ovarian; 41 µM with SK-MEL-5 melanoma; 86.9 µM in the assay on EKVX NSCLC; more than 100 µM in the assay on OVCAR-5 ovarian; more than 100 µM in the assay on SK-MEL-28 melanoma. Further, the TGI in the assay with 786-0 renal was 5.15 µM; in the assay on SK-MEL-2 melanoma, more than 100 µM; in the assay on SF-295 CNS, 5.13 µM.
On to `Cc1cc(O)c2c(c1)C(O)(c1ccc3c(c1O)C(=O)c1c(O)cc(C)cc1C3(O)C1OC(CO)C(O)C(O)C1O)c1cccc(O)c1C2=O` (stereo not drawn), for which the TGI in the assay with RPMI-8226 leukemia is more than 100 µM; in the assay on LOX IMVI melanoma, 28 µM; in the assay with SK-OV-3 ovarian, 31.4 µM; in the assay with SK-MEL-5 melanoma, 33 µM; in the assay on EKVX NSCLC, 28.2 µM; in the assay on OVCAR-5 ovarian, 32.3 µM. For the same compound, the results for the TGI in the assay on SK-MEL-28 melanoma, in the assay with 786-0 renal and in the assay with SF-295 CNS were 28.9 µM, 29.2 µM and 24.9 µM, respectively.
Consider `Cc1nc2c(n1CC(C)(C)C)C(=O)c1ccccc1C2=O`, for which the TGI with LOX IMVI melanoma, in the assay with SK-OV-3 ovarian, in the assay on SK-MEL-5 melanoma, with EKVX NSCLC, in the assay with SK-MEL-28 melanoma and in the assay with 786-0 renal was more than 100 µM throughout. In addition, the TGI in the assay on SK-MEL-2 melanoma and with SF-295 CNS was more than 100 µM in each case.
Turning to `O=C(C(=O)c1ccc(Cc2ccc(C(=O)C(=O)c3ccccc3)cc2)cc1)c1ccccc1`, the TGI in the assay with LOX IMVI melanoma, in the assay on SK-OV-3 ovarian, in the assay with SK-MEL-5 melanoma, with EKVX NSCLC, with OVCAR-5 ovarian and in the assay with SK-MEL-28 melanoma was more than 100 µM each time. The TGI with 786-0 renal, with SK-MEL-2 melanoma and with SF-295 CNS was more than 100 µM in each case.
